Test results: the supplement of paper PMC10307832

What was measured:
Assay in all cases: relative viability (nuclei count vs DMSO), 5 days (fraction); higher = more cells survive
[1] = test system: ChaGo-K-1
Summary of the method: (§1)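 Dosing by pin tool came one day after lung cancer cell lines were seeded in 1536-well plates, using either one drug or a fixed anchor-drug dose plus five library-drug doses (not always all listed) in √10 steps. After 5 days, nuclei were counted on 4× images. Relative viability is treated-well nuclei count divided by vehicle-well nuclei count, and values are medians of duplicate plates.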

[2] = test system: EMC-BAC-2
Summary of the method: as §1

[3] = test system: EPLC-272H
Summary of the method: as §1

[4] = test system: H3255
Summary of the method: as §1

[5] = test system: HCC-827
Summary of the method: as §1

[6] = test system: LCLC-103H
Summary of the method: as §1

[7] = test system: LCLC-97TM1
Summary of the method: as §1

[8] = test system: NCI-H1355
Summary of the method: as §1

[9] = test system: NCI-H1395
Summary of the method: as §1

[10] = test system: NCI-H1563
Summary of the method: as §1

[11] = test system: NCI-H1651
Summary of the method: as §1

[12] = test system: NCI-H1793
Summary of the method: as §1

[13] = test system: NCI-H1944
Summary of the method: as §1

[14] = test system: NCI-H2023
Summary of the method: as §1

[15] = test system: NCI-H2085
Summary of the method: as §1

[16] = test system: NCI-H2087
Summary of the method: as §1

[17] = test system: NCI-H2405
Summary of the method: as §1

[18] = test system: NCI-H322M
Summary of the method: as §1

[19] = test system: NCI-H520
Summary of the method: as §1

[20] = test system: NCI-H650
Summary of the method: as §1

[21] = test system: SK-MES-1
Summary of the method: as §1

[22] = test system: UMC-11
Summary of the method: as §1

Oc1nc(-c2ccc(C(F)(F)F)cc2)nc2c1CSCC2 [XAV939] + COc1cc2c(Oc3ccc(NC(=O)C4(C(=O)Nc5ccc(F)cc5)CC4)cc3F)ccnc2cc1OCCCN1CCOCC1 [Foretinib] (partner 0.25 µM)
relative viability ([1]; first compound 0.08 µM): 0.874
relative viability ([1]; first compound 0.253 µM): 1.01
relative viability ([1]; first compound 0.8 µM): 0.812
relative viability ([1]; first compound 2.53 µM): 0.773
relative viability ([2]; first compound 0.08 µM): 1.05
relative viability ([2]; first compound 0.253 µM): 0.747
relative viability ([2]; first compound 0.8 µM): 0.848
relative viability ([2]; first compound 2.53 µM): 0.553
relative viability ([3]; first compound 0.08 µM): 0.808
relative viability ([3]; first compound 0.253 µM): 0.603
relative viability ([3]; first compound 0.8 µM): 0.672
relative viability ([3]; first compound 2.53 µM): 0.548
relative viability ([4]; first compound 0.08 µM): 0.845
relative viability ([4]; first compound 0.253 µM): 0.825
relative viability ([4]; first compound 0.8 µM): 0.803
relative viability ([4]; first compound 2.53 µM): 0.851
relative viability ([5]; first compound 0.08 µM): 1.11
relative viability ([5]; first compound 0.253 µM): 0.996
relative viability ([5]; first compound 0.8 µM): 1.06
relative viability ([5]; first compound 2.53 µM): 0.989
relative viability ([6]; first compound 0.08 µM): 0.853
relative viability ([6]; first compound 0.253 µM): 0.643
relative viability ([6]; first compound 0.8 µM): 0.748
relative viability ([6]; first compound 2.53 µM): 0.659
relative viability ([7]; first compound 0.08 µM): 0.919
relative viability ([7]; first compound 0.253 µM): 0.796
relative viability ([7]; first compound 0.8 µM): 0.897
relative viability ([7]; first compound 2.53 µM): 0.936
relative viability ([8]; first compound 0.08 µM): 0.946
relative viability ([8]; first compound 0.253 µM): 0.839
relative viability ([8]; first compound 0.8 µM): 0.786
relative viability ([8]; first compound 2.53 µM): 0.619
relative viability ([9]; first compound 0.08 µM): 1.07
relative viability ([9]; first compound 0.253 µM): 0.783
relative viability ([9]; first compound 0.8 µM): 1
relative viability ([9]; first compound 2.53 µM): 0.961
relative viability ([10]; first compound 0.08 µM): 1.02
relative viability ([10]; first compound 0.253 µM): 0.905
relative viability ([10]; first compound 0.8 µM): 0.831
relative viability ([10]; first compound 2.53 µM): 0.678
relative viability ([11]; first compound 0.08 µM): 0.786
relative viability ([11]; first compound 0.253 µM): 0.705
relative viability ([11]; first compound 0.8 µM): 0.826
relative viability ([11]; first compound 2.53 µM): 0.768
relative viability ([12]; first compound 0.08 µM): 0.846
relative viability ([12]; first compound 0.253 µM): 0.558
relative viability ([12]; first compound 0.8 µM): 0.63
relative viability ([12]; first compound 2.53 µM): 0.454
relative viability ([13]; first compound 0.08 µM): 0.942
relative viability ([13]; first compound 0.253 µM): 0.842
relative viability ([13]; first compound 0.8 µM): 0.814
relative viability ([13]; first compound 2.53 µM): 0.704
relative viability ([14]; first compound 0.08 µM): 0.847
relative viability ([14]; first compound 0.253 µM): 0.756
relative viability ([14]; first compound 0.8 µM): 0.659
relative viability ([14]; first compound 2.53 µM): 0.514
relative viability ([15]; first compound 0.08 µM): 1.06
relative viability ([15]; first compound 0.253 µM): 1.11
relative viability ([15]; first compound 0.8 µM): 0.772
relative viability ([15]; first compound 2.53 µM): 0.893
relative viability ([16]; first compound 0.08 µM): 1.04
relative viability ([16]; first compound 0.253 µM): 1.03
relative viability ([16]; first compound 0.8 µM): 1.02
relative viability ([16]; first compound 2.53 µM): 0.677
relative viability ([17]; first compound 0.08 µM): 0.99
relative viability ([17]; first compound 0.253 µM): 1.01
relative viability ([17]; first compound 0.8 µM): 1.03
relative viability ([17]; first compound 2.53 µM): 1.01
relative viability ([18]; first compound 0.08 µM): 1.11
relative viability ([18]; first compound 0.253 µM): 0.921
relative viability ([18]; first compound 0.8 µM): 0.778
relative viability ([18]; first compound 2.53 µM): 0.609
relative viability ([19]; first compound 0.08 µM): 0.781
relative viability ([19]; first compound 0.253 µM): 0.694
relative viability ([19]; first compound 0.8 µM): 0.677
relative viability ([19]; first compound 2.53 µM): 0.626
relative viability ([20]; first compound 0.08 µM): 1.16
relative viability ([20]; first compound 0.253 µM): 0.991
relative viability ([20]; first compound 0.8 µM): 1.09
relative viability ([20]; first compound 2.53 µM): 0.857
relative viability ([21]; first compound 0.08 µM): 1.02
relative viability ([21]; first compound 0.253 µM): 0.841
relative viability ([21]; first compound 0.8 µM): 0.864
relative viability ([21]; first compound 2.53 µM): 0.82
relative viability ([22]; first compound 0.08 µM): 1.13
relative viability ([22]; first compound 0.253 µM): 0.873
relative viability ([22]; first compound 0.8 µM): 0.978
relative viability ([22]; first compound 2.53 µM): 0.8

O=C(O)c1ccc(-c2c[nH]c3ncc(-c4ccccc4)cc23)cc1C1CCCC1 + Cc1nc(Nc2ncc(C(=O)Nc3c(C)cccc3Cl)s2)cc(N2CCN(CCO)CC2)n1 [Dasatinib] (partner 0.075 µM)
relative viability ([1]; first compound 0.04 µM): 0.602
relative viability ([1]; first compound 0.1265 µM): 0.632
relative viability ([1]; first compound 0.4 µM): 0.518
relative viability ([1]; first compound 1.265 µM): 0.604
relative viability ([2]; first compound 0.04 µM): 0.285
relative viability ([2]; first compound 0.1265 µM): 0.31
relative viability ([2]; first compound 0.4 µM): 0.323
relative viability ([2]; first compound 1.265 µM): 0.294
relative viability ([3]; first compound 0.04 µM): 0.331
relative viability ([3]; first compound 0.1265 µM): 0.416
relative viability ([3]; first compound 0.4 µM): 0.328
relative viability ([3]; first compound 1.265 µM): 0.337
relative viability ([4]; first compound 0.04 µM): 0.378
relative viability ([4]; first compound 0.1265 µM): 0.6
relative viability ([4]; first compound 0.4 µM): 0.348
relative viability ([4]; first compound 1.265 µM): 0.473
relative viability ([5]; first compound 0.04 µM): 0.339
relative viability ([5]; first compound 0.1265 µM): 0.294
relative viability ([5]; first compound 0.4 µM): 0.348
relative viability ([5]; first compound 1.265 µM): 0.381
relative viability ([6]; first compound 0.04 µM): 0.481
relative viability ([6]; first compound 0.1265 µM): 0.426
relative viability ([6]; first compound 0.4 µM): 0.499
relative viability ([6]; first compound 1.265 µM): 0.545
relative viability ([7]; first compound 0.04 µM): 0.836
relative viability ([7]; first compound 0.1265 µM): 0.893
relative viability ([7]; first compound 0.4 µM): 0.881
relative viability ([7]; first compound 1.265 µM): 0.686
relative viability ([8]; first compound 0.04 µM): 0.754
relative viability ([8]; first compound 0.1265 µM): 0.841
relative viability ([8]; first compound 0.4 µM): 0.664
relative viability ([8]; first compound 1.265 µM): 0.567
relative viability ([9]; first compound 0.04 µM): 0.392
relative viability ([9]; first compound 0.1265 µM): 0.396
relative viability ([9]; first compound 0.4 µM): 0.365
relative viability ([9]; first compound 1.265 µM): 0.426
relative viability ([10]; first compound 0.04 µM): 0.455
relative viability ([10]; first compound 0.1265 µM): 0.514
relative viability ([10]; first compound 0.4 µM): 0.48
relative viability ([10]; first compound 1.265 µM): 0.48
relative viability ([11]; first compound 0.04 µM): 0.333
relative viability ([11]; first compound 0.1265 µM): 0.5
relative viability ([11]; first compound 0.4 µM): 0.384
relative viability ([11]; first compound 1.265 µM): 0.3
relative viability ([12]; first compound 0.04 µM): 0.376
relative viability ([12]; first compound 0.1265 µM): 0.473
relative viability ([12]; first compound 0.4 µM): 0.373
relative viability ([12]; first compound 1.265 µM): 0.342
relative viability ([13]; first compound 0.04 µM): 0.227
relative viability ([13]; first compound 0.1265 µM): 0.254
relative viability ([13]; first compound 0.4 µM): 0.216
relative viability ([13]; first compound 1.265 µM): 0.193
relative viability ([14]; first compound 0.04 µM): 0.575
relative viability ([14]; first compound 0.1265 µM): 0.738
relative viability ([14]; first compound 0.4 µM): 0.603
relative viability ([14]; first compound 1.265 µM): 0.515
relative viability ([15]; first compound 0.04 µM): 0.259
relative viability ([15]; first compound 0.1265 µM): 0.268
relative viability ([15]; first compound 0.4 µM): 0.307
relative viability ([15]; first compound 1.265 µM): 0.247
relative viability ([16]; first compound 0.04 µM): 0.752
relative viability ([16]; first compound 0.1265 µM): 0.778
relative viability ([16]; first compound 0.4 µM): 0.896
relative viability ([16]; first compound 1.265 µM): 0.661
relative viability ([17]; first compound 0.04 µM): 0.207
relative viability ([17]; first compound 0.1265 µM): 0.253
relative viability ([17]; first compound 0.4 µM): 0.191
relative viability ([17]; first compound 1.265 µM): 0.191
relative viability ([18]; first compound 0.04 µM): 0.277
relative viability ([18]; first compound 0.1265 µM): 0.267
relative viability ([18]; first compound 0.4 µM): 0.239
relative viability ([18]; first compound 1.265 µM): 0.237
relative viability ([19]; first compound 0.04 µM): 0.199
relative viability ([19]; first compound 0.1265 µM): 0.203
relative viability ([19]; first compound 0.4 µM): 0.253
relative viability ([19]; first compound 1.265 µM): 0.222
relative viability ([20]; first compound 0.04 µM): 0.43
relative viability ([20]; first compound 0.1265 µM): 0.502
relative viability ([20]; first compound 0.4 µM): 0.405
relative viability ([20]; first compound 1.265 µM): 0.353
relative viability ([21]; first compound 0.04 µM): 0.406
relative viability ([21]; first compound 0.1265 µM): 0.384
relative viability ([21]; first compound 0.4 µM): 0.387
relative viability ([21]; first compound 1.265 µM): 0.4
relative viability ([22]; first compound 0.04 µM): 0.505
relative viability ([22]; first compound 0.1265 µM): 0.496
relative viability ([22]; first compound 0.4 µM): 0.501
relative viability ([22]; first compound 1.265 µM): 0.433
